{
  "source": "patent US20100016256A1",
  "about": "“Taxane Compounds for Treating Eye Disease” (priority 2008, published 2010)",
  "key": {"[1]": {"conditions": "paclitaxel conjugated to cobalt atom of cobalamin"}, "[2]": {"test_system": "viable circulating endothelial cell precursors (CEPs)", "conditions": "mice; for Viable CEPs per microliter of peripheral blood: after 28 days", "protocol": "(§1) A group of 6 mice are administered various dosages of the cobalamin-paclitaxel bioconjugate prepared in accordance with Example 1 over a 28-day period. The effects on counts of viable circulating endothelial cell precursors and white blood cells are measured after 28 days."}, "white blood cells": {"test_system": "white blood cells", "conditions": "mice; for White blood cells per 10^4 peripheral blood cells: after 28 days", "protocol": "as §1"}, "[3]": {"test_system": "bFGF-stimulated formation of new blood vessel in the Matrigel plug", "assay": "Matrigel plug perfusion in vivo assay", "conditions": "mice, Matrigel and bFGF; for Matrigel Plug/Plasma Fluorescence Ratio: oral gavage", "protocol": "A Matrigel® plug perfusion in vivo assay is performed to determine the anti-angiogenic efficiacy of the cobalamin-paclitaxel bioconjugate (Cob-Pac) of Example 1. The assay uses Matrigel®, a gelatinous protein mixture secreted by mouse tumor cells (BD Biosciences, San Jose, Calif.), to duplicate tissue environments. Matrigel® is liquid at […], but when injected into the animal, forms a solid plug. If a growth vessel stimulant such as basic fibroblast growth factor (bFGF) is mixed with the Matrigel®, the bFGF stimulates the formation of new blood vessel in the plug, which can be monitored in the animal via fluorescence techniques. In the current study, Matrigel® is injected either alone or with bFGF subcutaneously into mice."}, "[4]": {"test_system": "blood vessel lesions of the eye", "conditions": "rats", "description": "In another study, flat mount evaluation of the eyes can be carried out at the end of the study because angiography may not provide a full evaluation of the effect of the drug. At the end of the study, the eyes are removed, histologically processed and all lesions can be seen (including those that can not be detected by angiography).\nGroups of 8 rats/dosage group are neovascularized by laser burns, followed by immediate treatment of the eye with a cobalamin-paclitaxel bioconjugate prepared in accordance with Example 1. Dosages used are 1.5 μg/2 μL, 5.0 μg/2 μL, and 15 μg/2 μL. The treatments also include a vehicle and Kenacort Retard® (4% triamcinolone acetonide). After 21 days, the eyes are removed, histologically processed, and the lesion size scored in μm^3."}, "[5]": {"test_system": "choroidal neovascularization by laser burns on the eye", "conditions": "rats", "protocol": "Groups of 8 rats/dosage group or vehicle are neovascularized by laser burns on the eye. Afterwards, the eye is immediately treated with a cobalamin-paclitaxel bioconjugate prepared in accordance with Example 1 at a dose of 1.5 μg/2 μL, 5.0 μg/2 μL, and 15 μg/2 μL (indicated as B.C. in FIG. 1). The treatment regimen also includes a vehicle and Kenacort Retard® (4% triamcinolone acetonide), as a positive control. Each treatment is scored at 7, 14, and 21 days post-treatment by infusing the eye with fluorescein and scoring the leakage using angiography. A score of 0 indicates no leakage while a score of 3 indicates severe leakage. The results of the test are shown in FIG. 1 as the percentage of […] scoring 3."}, "[6]": {"conditions": "1.5 mg/kg paclitaxel delivered as bioconjugate"}, "[7]": {"conditions": "2 mg/kg paclitaxel delivered as bioconjugate"}, "[8]": {"conditions": "3 mg/kg paclitaxel delivered as bioconjugate"}, "[9]": {"conditions": "6 mg/kg paclitaxel delivered as bioconjugate"}, "[10]": {"conditions": "30 mg/kg paclitaxel delivered as bioconjugate"}},
  "note": "Where two headings read alike, the source gives them in different places.",
  "data": [
    {"smiles": "CC(=O)O[C@H]1C(=O)[C@@]2(C)C([C@H](OC(=O)c3ccccc3)[C@]3(O)C[C@H](OC(=O)[C@H](OC(=O)C[NH+](C)CC[CH2][Co+][N]4/C5=C(/C)C6=N/C(=C\\C7=NC(=C(/C)C8=NC(C(C)C4C(CC(N)=O)C5(C)CCC(=O)NCC(C)OP(=O)([O-])OC4C(CO)OC(n5cnc9cc(C)c(C)cc95)C4O)C(C)(CC(N)=O)C8CCC(N)=O)/C(C)(CC(N)=O)C7CCC(N)=O)C(C)(C)C6CCC(N)=O)[C@@H](NC(=O)c4ccccc4)c4ccccc4)C(C)=C1C3(C)C)[C@]1(OC(C)=O)COC1C[C@@H]2O.[Cl-]", "note": "(stereo partly drawn) [cobalamin-paclitaxel bioconjugate, Cbl-(CH2)3N(CH3)CH2COO-2′-P7X]", "values": [
      {"measurement": "water solubility", "setting": "[1]", "result": "over 100 mg/ml"},
      {"measurement": "Viable CEPs per microliter of peripheral blood", "setting": "[2]; [6]", "result": "0.4 per microliter of peripheral blood"},
      {"measurement": "Viable CEPs per microliter of peripheral blood", "setting": "[2]; [7]", "result": "0.25 per microliter of peripheral blood"},
      {"measurement": "Viable CEPs per microliter of peripheral blood", "setting": "[2]; [8]", "result": "0.4 per microliter of peripheral blood"},
      {"measurement": "Viable CEPs per microliter of peripheral blood", "setting": "[2]; [9]", "result": "0.9 per microliter of peripheral blood"},
      {"measurement": "Viable CEPs per microliter of peripheral blood", "setting": "[2]; [10]", "result": "1.2 per microliter of peripheral blood"},
      {"measurement": "Most effective dose (decrease in viable CEPs)", "setting": "[2]; 28-day dose study, dose as paclitaxel", "result": "about 2 mg/kg"},
      {"measurement": "White blood cells per 10^4 peripheral blood cells", "setting": "white blood cells; [6]", "result": "6700 per 10^4 peripheral blood cells"},
      {"measurement": "White blood cells per 10^4 peripheral blood cells", "setting": "white blood cells; [7]", "result": "6700 per 10^4 peripheral blood cells"},
      {"measurement": "White blood cells per 10^4 peripheral blood cells", "setting": "white blood cells; [8]", "result": "7000 per 10^4 peripheral blood cells"},
      {"measurement": "White blood cells per 10^4 peripheral blood cells", "setting": "white blood cells; [9]", "result": "6700 per 10^4 peripheral blood cells"},
      {"measurement": "White blood cells per 10^4 peripheral blood cells", "setting": "white blood cells; [10]", "result": "8100 per 10^4 peripheral blood cells"},
      {"measurement": "Toxicity by white blood cell count (neutropenia)", "setting": "white blood cells; 28 days, absence of a decrease in white blood cell count", "result": "no neutropenia"},
      {"measurement": "Effect on growth of new blood vessels in Matrigel plug", "setting": "[3]; each dose (2, 6, 30 mg/kg), greatest effect at 2 and 6 mg/kg", "result": "inhibits the growth of new blood vessels"},
      {"measurement": "Matrigel Plug/Plasma Fluorescence Ratio", "setting": "[3]; 2 mg/kg expressed in paclitaxel units", "result": 0.0007},
      {"measurement": "Matrigel Plug/Plasma Fluorescence Ratio", "setting": "[3]; 6 mg/kg expressed in paclitaxel units", "result": 0.0005},
      {"measurement": "Matrigel Plug/Plasma Fluorescence Ratio", "setting": "[3]; 30 mg/kg expressed in paclitaxel units", "result": 0.0011},
      {"measurement": "Number of blood vessel lesions (FIG. 2)", "setting": "[4]; 21 days, 1.5, 5.0 and 15 μg/2 μL", "result": "decrease in a concentration dependent manner"},
      {"measurement": "Inhibition of new blood vessel growth (lesion study)", "setting": "[4]; 21 days, high and medium concentrations (15 and 5.0 μg/2 μL)", "result": "efficacious in inhibiting new blood vessel growth"},
      {"measurement": "Anti-angiogenic effect by fluorescein leakage score (FIG. 1)", "setting": "[5]; after 7 days, intermediate and high doses (5.0 and 15 μg/2 μL)", "result": "anti-angiogenic results"},
      {"measurement": "Anti-angiogenic effect by fluorescein leakage score (FIG. 1)", "setting": "[5]; after 14 days, high dose (15 μg/2 μL)", "result": "anti-angiogenic benefit"}
    ]}
  ]
}
